Measured values published in ChEMBL document CHEMBL6087474, “Discovery of an Efficacious RET PROTAC Degrader with Enhanced Antiproliferative Activity against Resistant Cancer Cells Harboring RET Solvent-Front Mutations” (J Med Chem, 2025).

Key:
[1] = Induction of apoptosis in mouse BaF3 cells stably expressing KIF5B-RET-G810C mutant assessed as late apoptotic cells at 900 nM measured after 48 hrs by Annexin V-FITC/7-AAD staining based flow cytometric analysis (reference value: 1.96 %); assay type: functional
[2] = Induction of apoptosis in mouse BaF3 cells stably expressing wildtype KIF5B-RET fusion protein assessed as necrotic cells at 300 nM measured after 48 hrs by Annexin V-FITC/7-AAD staining based flow cytometric analysis (reference value: 2.40 %); assay type: functional
[3] = Induction of apoptosis in mouse BaF3 cells stably expressing KIF5B-RET-G810C mutant assessed as necrotic cells at 900 nM measured after 48 hrs by Annexin V-FITC/7-AAD staining based flow cytometric analysis (reference value: 2.89 %); assay type: functional
[4] = Potency index, ratio of selpercatinib IC50 to test compound IC50 for antiproliferative activity against mouse BaF3 cells stably expressing CCDC6-RET-G810C mutant incubated for 72 hrs by CCK-8 assay; assay type: functional
[5] = system: BaF3; assay: Antitumor activity against mouse BaF3 cells stably expressing KIF5B-RET-G810C mutant implanted in male BALB/c mouse model assessed as tumor growth inhibition at 30 mg/kg, ip administered daily for 14 days relative to control; assay type: functional; details: BaF3, 336 h, time 14 day, read-out: TGI
[6] = biological target: Protein cereblon/Proto-oncogene tyrosine-protein kinase receptor Ret/Kinesin-1 heavy chain (Homo sapiens) (UniProt P07949+P33176+Q96SW2); assay: PROTAC activity at CRBN/KIF5B-RET in human LC-2-ad cells assessed as induction of RET degradation at 11.1 nM measured after 6 hrs by Western blotting analysis relative to control; assay type: cell-based
Protein cereblon/Proto-oncogene tyrosine-protein kinase receptor Ret/Kinesin-1 heavy chain (Homo sapiens), sequence (P07949 whole entry, looked up): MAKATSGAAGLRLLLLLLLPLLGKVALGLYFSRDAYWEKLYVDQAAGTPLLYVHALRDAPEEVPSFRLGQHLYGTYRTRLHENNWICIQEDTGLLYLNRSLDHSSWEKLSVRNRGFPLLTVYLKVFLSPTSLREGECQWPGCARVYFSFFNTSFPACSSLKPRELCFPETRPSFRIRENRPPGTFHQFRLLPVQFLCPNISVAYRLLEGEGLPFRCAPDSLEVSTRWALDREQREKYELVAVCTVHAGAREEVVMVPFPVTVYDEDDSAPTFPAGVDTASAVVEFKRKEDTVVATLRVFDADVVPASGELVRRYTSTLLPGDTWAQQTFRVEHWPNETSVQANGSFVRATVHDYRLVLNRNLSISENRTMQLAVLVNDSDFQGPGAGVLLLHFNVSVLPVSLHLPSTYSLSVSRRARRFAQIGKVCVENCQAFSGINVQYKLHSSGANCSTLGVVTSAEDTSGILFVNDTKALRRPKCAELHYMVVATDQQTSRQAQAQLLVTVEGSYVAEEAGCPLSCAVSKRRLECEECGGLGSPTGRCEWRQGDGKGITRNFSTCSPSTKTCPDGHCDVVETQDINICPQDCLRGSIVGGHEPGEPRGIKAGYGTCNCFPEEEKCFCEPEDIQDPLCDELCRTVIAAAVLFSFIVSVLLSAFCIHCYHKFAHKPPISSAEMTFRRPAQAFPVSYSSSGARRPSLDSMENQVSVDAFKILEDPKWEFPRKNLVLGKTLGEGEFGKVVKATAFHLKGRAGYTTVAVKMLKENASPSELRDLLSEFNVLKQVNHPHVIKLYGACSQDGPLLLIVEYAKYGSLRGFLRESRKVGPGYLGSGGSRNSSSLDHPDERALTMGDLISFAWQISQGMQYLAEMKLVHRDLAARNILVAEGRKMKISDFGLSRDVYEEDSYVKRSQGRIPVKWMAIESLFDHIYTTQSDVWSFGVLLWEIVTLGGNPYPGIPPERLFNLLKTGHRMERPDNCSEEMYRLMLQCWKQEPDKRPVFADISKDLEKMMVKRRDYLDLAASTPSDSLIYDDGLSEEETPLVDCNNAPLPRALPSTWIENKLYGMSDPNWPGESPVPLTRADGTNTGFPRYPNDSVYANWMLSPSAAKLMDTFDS
Protein cereblon/Proto-oncogene tyrosine-protein kinase receptor Ret/Kinesin-1 heavy chain (Homo sapiens), sequence (P33176 whole entry, looked up): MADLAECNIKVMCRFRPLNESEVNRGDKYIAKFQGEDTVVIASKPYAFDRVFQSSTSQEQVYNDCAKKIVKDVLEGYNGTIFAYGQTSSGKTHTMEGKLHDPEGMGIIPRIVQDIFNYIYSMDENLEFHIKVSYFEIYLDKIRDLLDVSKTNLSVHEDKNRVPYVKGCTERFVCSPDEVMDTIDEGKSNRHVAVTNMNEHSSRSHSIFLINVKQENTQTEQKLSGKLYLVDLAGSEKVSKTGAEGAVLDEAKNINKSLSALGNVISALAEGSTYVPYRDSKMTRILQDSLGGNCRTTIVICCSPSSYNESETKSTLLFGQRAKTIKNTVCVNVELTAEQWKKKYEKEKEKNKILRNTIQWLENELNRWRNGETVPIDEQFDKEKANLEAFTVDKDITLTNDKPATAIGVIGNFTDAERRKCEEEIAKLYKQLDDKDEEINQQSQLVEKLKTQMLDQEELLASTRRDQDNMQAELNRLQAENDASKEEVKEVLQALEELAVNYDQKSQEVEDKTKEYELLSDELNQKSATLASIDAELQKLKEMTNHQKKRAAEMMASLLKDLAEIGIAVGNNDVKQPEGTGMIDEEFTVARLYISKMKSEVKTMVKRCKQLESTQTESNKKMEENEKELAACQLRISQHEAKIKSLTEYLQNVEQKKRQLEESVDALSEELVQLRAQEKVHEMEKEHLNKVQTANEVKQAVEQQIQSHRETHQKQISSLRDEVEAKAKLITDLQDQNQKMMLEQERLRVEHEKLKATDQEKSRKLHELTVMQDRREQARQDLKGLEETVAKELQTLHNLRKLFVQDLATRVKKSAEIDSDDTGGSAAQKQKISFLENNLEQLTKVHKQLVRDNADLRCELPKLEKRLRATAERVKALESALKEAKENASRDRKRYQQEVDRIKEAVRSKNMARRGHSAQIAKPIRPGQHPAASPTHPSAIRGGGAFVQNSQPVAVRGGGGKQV
Protein cereblon/Proto-oncogene tyrosine-protein kinase receptor Ret/Kinesin-1 heavy chain (Homo sapiens), sequence (Q96SW2 whole entry, looked up): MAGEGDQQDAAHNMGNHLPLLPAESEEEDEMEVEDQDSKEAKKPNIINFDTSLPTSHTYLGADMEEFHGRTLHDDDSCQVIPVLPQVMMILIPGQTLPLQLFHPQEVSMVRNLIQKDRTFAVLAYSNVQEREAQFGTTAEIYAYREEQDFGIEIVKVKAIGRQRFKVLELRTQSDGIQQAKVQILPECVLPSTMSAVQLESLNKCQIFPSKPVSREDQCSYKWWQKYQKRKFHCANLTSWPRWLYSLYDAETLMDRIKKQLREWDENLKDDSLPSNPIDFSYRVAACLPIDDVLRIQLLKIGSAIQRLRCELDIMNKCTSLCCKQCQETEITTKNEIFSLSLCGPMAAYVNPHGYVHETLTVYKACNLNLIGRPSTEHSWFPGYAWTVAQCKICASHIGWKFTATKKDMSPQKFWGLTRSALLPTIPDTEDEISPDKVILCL

[7] = system: BaF3; assay: Antiproliferative activity against mouse BaF3 cells stably expressing KIF5B-RET-G810R mutant incubated for 72 hrs by CCK-8 assay; assay type: functional, cell-based; details: BaF3, 72 h
[8] = Effect on RET protein level in mouse BaF3 cells stably expressing wildtype KIF5B-RET assessed as fold change at 100 nM measured after 6 hrs by Western blot analysis (reference value: 1); assay type: functional
[9] = Induction of apoptosis in mouse BaF3 cells stably expressing wildtype KIF5B-RET fusion protein assessed as late apoptotic cells at 100 nM measured after 48 hrs by Annexin V-FITC/7-AAD staining based flow cytometric analysis (reference value: 1.03 %); assay type: functional
[10] = Toxicity in male BALB/c mouse model implanted with mouse BaF3 cells stably expressing KIF5B-RET-G810C mutant assessed as body weight loss at 10 to 30 mg/kg, ip administered daily for 14 days; assay type: organism-based; details: in vivo, 336 h, dose 10-30 mg/kg, time 14 day
[11] = Effect on Shc protein level in mouse BaF3 cells stably expressing KIF5B-RET-G810C mutant assessed as fold change at 300 nM measured after 6 hrs by Western blot analysis (reference value: 1); assay type: functional
[12] = system: BaF3; assay: Antiproliferative activity against mouse BaF3 cells stably expressing KIF5B-RET fusion protein incubated for 72 hrs by CCK-8 assay; assay type: functional, cell-based; details: BaF3, 72 h
[13] = Effect on RET protein level in mouse BaF3 cells stably expressing KIF5B-RET-G810C mutant assessed as fold change at 300 nM measured after 6 hrs by Western blot analysis (reference value: 1); assay type: functional
[14] = PROTAC activity at CRBN/KIF5B-RET-V804M mutant (unknown origin) expressed in mouse BaF3 cells assessed as induction of RET degradation measured after 6 hrs by Western blot analysis; assay type: cell-based; details: BaF3, 6 h
[15] = system: BaF3; assay: Antitumor activity against mouse BaF3 cells stably expressing KIF5B-RET-G810C mutant implanted in male BALB/c mouse model assessed as tumor growth inhibition at 10 mg/kg, ip administered daily for 14 days relative to control; assay type: functional; details: BaF3, 336 h, time 14 day, read-out: TGI
[16] = system: Kinesin-1 heavy chain/ Tyrosine-protein kinase receptor RET (Homo sapiens), P07949+P33176 [G810C]; assay: In vivo PROTAC activity at CRBN/KIF5B-RET-G810C mutant in male BALB/c mouse model implanted with mouse BaF3 cells stably expressing KIF5B-RET-G810C mutant assessed as induction of RET degradation in tumor at 10 mg/kg, ip measured after 3 days by Western blotting analysis relative to control; assay type: functional, organism-based; details: time 3.0 day
[17] = system: BaF3; assay: PROTAC activity at CRBN/KIF5B-RET-G810R mutant (unknown origin) expressed in mouse BaF3 cells assessed as induction of RET degradation at 300 nM measured after 6 hrs by Western blot analysis relative to control; assay type: cell-based; details: Homo sapiens
[18] = Effect on Shc protein level in mouse BaF3 cells stably expressing wildtype KIF5B-RET assessed as fold change at 100 nM measured after 6 hrs by Western blot analysis; assay type: functional
[19] = Effect on RET protein level in mouse BaF3 cells stably expressing wildtype KIF5B-RET assessed as fold change at 33.3 nM measured after 6 hrs by Western blot analysis (reference value: 1); assay type: functional
[20] = Cmax in male ICR mouse at 10 mg/kg, ip measured after 24 hrs by LC-MS/MS analysis; assay type: ADME, organism-based; details: in vivo
[21] = system: BaF3; assay: PROTAC activity at CRBN/KIF5B-RET (unknown origin) expressed in mouse BaF3 cells assessed as induction of RET degradation at 100 nM measured after 6 hrs by Western blot analysis relative to control; assay type: cell-based
[22] = system: Kinesin-1 heavy chain/ Tyrosine-protein kinase receptor RET (Homo sapiens), P07949+P33176 [G810C]; assay: In vivo PROTAC activity at CRBN/KIF5B-RET-G810C mutant in male BALB/c mouse model implanted with mouse BaF3 cells stably expressing KIF5B-RET-G810C mutant assessed as induction of RET degradation in tumor at 30 mg/kg, ip measured after 3 days by Western blotting analysis relative to control; assay type: functional, organism-based; details: time 3.0 day
[23] = Induction of apoptosis in mouse BaF3 cells stably expressing wildtype KIF5B-RET fusion protein assessed as late apoptotic cells at 300 nM measured after 48 hrs by Annexin V-FITC/7-AAD staining based flow cytometric analysis (reference value: 1.03 %); assay type: functional
[24] = Induction of apoptosis in mouse BaF3 cells stably expressing wildtype KIF5B-RET fusion protein assessed as early apoptotic cells at 33.3 nM measured after 48 hrs by Annexin V-FITC/7-AAD staining based flow cytometric analysis (reference value: 9.92 %); assay type: functional
[25] = Effect on Shc protein level in mouse BaF3 cells stably expressing wildtype KIF5B-RET assessed as fold change at 33.3 nM measured after 6 hrs by Western blot analysis; assay type: functional
[26] = Induction of apoptosis in mouse BaF3 cells stably expressing wildtype KIF5B-RET fusion protein assessed as necrotic cells at 33.3 nM measured after 48 hrs by Annexin V-FITC/7-AAD staining based flow cytometric analysis (reference value: 2.40 %); assay type: functional
[27] = Effect on RET protein level in mouse BaF3 cells stably expressing wildtype KIF5B-RET assessed as fold change at 300 nM measured after 6 hrs by Western blot analysis (reference value: 1); assay type: functional
[28] = AUC in male ICR mouse at 10 mg/kg, ip measured after 24 hrs by LC-MS/MS analysis; assay type: ADME, organism-based; details: in vivo

COc1ccc(CN2C3CC2CN(c2ccc(-c4cc(-c5cnn(C6CCN(CCCCCC#Cc7cccc8c7CN(C7CCC(=O)NC7=O)C8=O)CC6)c5)cn5ncc(C#N)c45)cn2)C3)cn1 (stereo not drawn)
Activity [1]: 3.71%
Activity [2]: 0.42%
Activity [3]: 1.26%
Ratio IC50 [4]: ~8.8
inhibition in vivo at 30 mg/kg [5]: 49.2%
Activity [6]: 61.6%
IC50 [7]: 150 nM
fold change (FC) [8]: 0.3
Activity [9]: 0.99%
Activity [10]: Non-toxic
fold change (FC) [11]: 1
IC50 [12]: 10 nM
fold change (FC) [13]: 0.3
DC50 [14]: 17.2 nM
inhibition in vivo at 10 mg/kg [15]: 31.6%
Activity [16]: 47%
Activity [17]: 43%
fold change (FC) [18]: 1
fold change (FC) [19]: 0.3
Cmax [20]: 68 ng/mL
Activity [21]: 73%
Activity [22]: 55.3%
Activity [23]: 1%
Activity [24]: 20.96%
fold change (FC) [25]: 1
Activity [26]: 1.79%
fold change (FC) [27]: 0.2
AUC at 24 h [28]: 680 ng·h/mL
